In patent US20240043427A1 (Gilead Sciences, Inc., priority 2020, published 2024):

Experiments:
CD73 [1] = biological target: T1, CD73 (Homo sapiens (Human), UniProt P21589); assay type: biochemical; conditions: 1 mM NaH2PO4 in enzyme buffer, CD73 0.3 nM, AMP 15 uM
CD73 [2] = biological target: T1, CD73; experiment: MDA-MB-231 Cell Based CD73 Activity Assay (DMEM); conditions: MDA-MB-231-GFP cells, DMEM medium with 10% human plasma, 200 uM AMP

T1 sequence (P21589 27-574): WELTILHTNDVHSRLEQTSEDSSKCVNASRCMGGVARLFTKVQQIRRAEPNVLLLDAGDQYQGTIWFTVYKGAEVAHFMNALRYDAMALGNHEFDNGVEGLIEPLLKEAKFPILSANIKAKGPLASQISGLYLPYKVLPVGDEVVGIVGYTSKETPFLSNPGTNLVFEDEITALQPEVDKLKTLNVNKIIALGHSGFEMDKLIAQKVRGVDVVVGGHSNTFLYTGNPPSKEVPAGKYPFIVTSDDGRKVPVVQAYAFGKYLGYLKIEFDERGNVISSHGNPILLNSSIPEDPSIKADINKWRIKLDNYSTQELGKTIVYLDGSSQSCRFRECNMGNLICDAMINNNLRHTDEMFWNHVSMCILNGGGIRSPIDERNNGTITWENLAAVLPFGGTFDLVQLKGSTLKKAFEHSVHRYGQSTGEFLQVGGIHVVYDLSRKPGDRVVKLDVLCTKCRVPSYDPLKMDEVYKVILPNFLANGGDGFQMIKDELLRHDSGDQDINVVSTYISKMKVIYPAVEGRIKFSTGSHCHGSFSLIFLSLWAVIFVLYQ

SMILES | IC50 (CD73 [1]) [nM] | EC50 (CD73 [2]) [nM]
O=c1[nH]cc(-c2cc(N3CC(c4ccc(OC(F)(F)F)cc4)C3)c3nccn3n2)c(=O)[nH]1 [Example 252, 5-(8-(3-(4-(trifluoromethoxy)phenyl)azetidin-1-yl)imidazo[1,2-b]pyridazin-6-yl)pyrimidine-2,4(1H,3H)-dione] | 174 | 1240
O=c1[nH]cc(-c2cc(N3CCC(F)(c4ccccc4)C3)c3nccn3n2)c(=O)[nH]1 (centres unmarked) [Example 253, 5-(8-(3-fluoro-3-phenylpyrrolidin-1-yl)imidazo[1,2-b]pyridazin-6-yl)pyrimidine-2,4(1H,3H)-dione] | 20 | 160
O=c1[nH]cc(-c2cc(N3CCC4CC43)c3nccn3n2)c(=O)[nH]1 (centres unmarked) [Example 254, 5-(8-(2-azabicyclo[3.1.0]hexan-2-yl)imidazo[1,2-b]pyridazin-6-yl)pyrimidine-2,4(1H,3H)-dione] | 26.6 | 136
O=c1[nH]cc(-c2cc(N3CCC(F)(c4ccc(F)cc4)C3)c3nccn3n2)c(=O)[nH]1 (centres unmarked) [Example 255, 5-(8-(3-fluoro-3-(4-fluorophenyl)pyrrolidin-1-yl)imidazo[1,2-b]pyridazin-6-yl)pyrimidine-2,4(1H,3H)-dione] | 17.5 | 113
O=c1[nH]cc(-c2cc(N3CCC(F)(c4ccc(C(F)(F)F)cc4)C3)c3nccn3n2)c(=O)[nH]1 (centres unmarked) [Example 256, 5-(8-(3-fluoro-3-(4-(trifluoromethyl)phenyl)pyrrolidin-1-yl)imidazo[1,2-b]pyridazin-6-yl)pyrimidine-2,4(1H,3H)-dione] | 43.1 | 185
O=c1[nH]cc(-c2cc(N3CCC4CCC43)c3nccn3n2)c(=O)[nH]1 (centres unmarked) [Example 257, 5-(8-(2-azabicyclo[3.2.0]heptan-2-yl)imidazo[1,2-b]pyridazin-6-yl)pyrimidine-2,4(1H,3H)-dione] | 51.7 | 103
O=c1[nH]cc(-c2cc(N3CC(c4ccc(F)cc4)C3)c3nccn3n2)c(=O)[nH]1 [Example 258, 5-(8-(3-(4-fluorophenyl)azetidin-1-yl)imidazo[1,2-b]pyridazin-6-yl)pyrimidine-2,4(1H,3H)-dione] | 52.4 | 106
O=c1[nH]cc(-c2cc(N3CCC4(CC4)C(F)(F)C3)c3nccn3n2)c(=O)[nH]1 [Example 260, 5-(8-(4,4-difluoro-6-azaspiro[2.5]octan-6-yl)imidazo[1,2-b]pyridazin-6-yl)pyrimidine-2,4(1H,3H)-dione] | > 250 | 963
O=c1[nH]cc(-c2cc(N3CCC(c4ccc(C(F)(F)F)cc4)C3)c3ncc(F)n3n2)c(=O)[nH]1 (centres unmarked) [Example 262, 5-(3-fluoro-8-(3-(4-(trifluoromethyl)phenyl)pyrrolidin-1-yl)imidazo[1,2-b]pyridazin-6-yl)pyrimidine-2,4(1H,3H)-dione] | 73.4 | 565
O=C(c1ccc(C2CN(c3cc(-c4c[nH]c(=O)[nH]c4=O)nn4ccnc34)C2)cc1)N1CC(F)(F)C1 [Example 267, 5-(8-(3-(4-(3,3-difluoroazetidine-1-carbonyl)phenyl)azetidin-1-yl)imidazo[1,2-b]pyridazin-6-yl)pyrimidine-2,4(1H,3H)-dione] | 34.7 | 66.6
O=C(c1cccc(C2CN(c3cc(-c4c[nH]c(=O)[nH]c4=O)nn4ccnc34)C2)c1)N1CC(F)(F)C1 [Example 268, 5-(8-(3-(3-(3,3-difluoroazetidine-1-carbonyl)phenyl)azetidin-1-yl)imidazo[1,2-b]pyridazin-6-yl)pyrimidine-2,4(1H,3H)-dione] | 97 | 135
O=c1[nH]cc(-c2cc(N3CCC4(CCOC4)C3)c3nccn3n2)c(=O)[nH]1 (centres unmarked) [Example 274, 5-(8-(2-oxa-7-azaspiro[4.4]nonan-7-yl)imidazo[1,2-b]pyridazin-6-yl)pyrimidine-2,4(1H,3H)-dione] | 16.5 | 39.4

Molecules with a lower IC50 (CD73 [1]), results first:

IC50 (CD73 [1]) [nM] | EC50 (CD73 [2]) [nM] | SMILES
14.7 | 80.7 | O=c1[nH]cc(-c2cc(N3CC(F)(c4ccccc4)C3)c3nccn3n2)c(=O)[nH]1 [Example 259, 5-(8-(3-fluoro-3-phenylazetidin-1-yl)imidazo[1,2-b]pyridazin-6-yl)pyrimidine-2,4(1H,3H)-dione]
13.9 | 139 | COC(=O)c1ccc(C2CN(c3cc(-c4c[nH]c(=O)[nH]c4=O)nn4ccnc34)C2)cc1 [Example 261, Methyl 4-(1-(6-(2,4-dioxo-1,2,3,4-tetrahydropyrimidin-5-yl)imidazo[1,2-b]pyridazin-8-yl)azetidin-3-yl)benzoate]
10.7 | 31.4 | COC(=O)c1cccc(C2CN(c3cc(-c4c[nH]c(=O)[nH]c4=O)nn4ccnc34)C2)c1 [Example 263, Methyl 3-(1-(6-(2,4-dioxo-1,2,3,4-tetrahydropyrimidin-5-yl)imidazo[1,2-b]pyridazin-8-yl)azetidin-3-yl)benzoate]
5.59 | 88 | COC(=O)c1cccc(C2CCN(c3cc(-c4c[nH]c(=O)[nH]c4=O)nn4ccnc34)C2)c1 (centres unmarked) [Example 264, Methyl 3-(1-(6-(2,4-dioxo-1,2,3,4-tetrahydropyrimidin-5-yl)imidazo[1,2-b]pyridazin-8-yl)pyrrolidin-3-yl)benzoate]
3.22 | 77.9 | COC(=O)c1ccc(C2CCN(c3cc(-c4c[nH]c(=O)[nH]c4=O)nn4ccnc34)C2)cc1 (centres unmarked) [Example 265, Methyl 4-(1-(6-(2,4-dioxo-1,2,3,4-tetrahydropyrimidin-5-yl)imidazo[1,2-b]pyridazin-8-yl)pyrrolidin-3-yl)benzoate]
1.93 | 13.5 | O=c1[nH]cc(-c2cc(N3CC(F)(F)C4(CC4)C3)c3nncn3n2)c(=O)[nH]1 [Example 266, 5-(8-(7,7-difluoro-5-azaspiro[2.4]heptan-5-yl)-[1,2,4]triazolo[4,3-b]pyridazin-6-yl)pyrimidine-2,4(1H,3H)-dione]
3.62 | 27 | CNC(=O)c1cccc(C2CCN(c3cc(-c4c[nH]c(=O)[nH]c4=O)nn4ccnc34)C2)c1 (centres unmarked) [Example 269, 3-(1-(6-(2,4-dioxo-1,2,3,4-tetrahydropyrimidin-5-yl)imidazo[1,2-b]pyridazin-8-yl)pyrrolidin-3-yl)-N-methylbenzamide]
1.13 | 13.7 | CNC(=O)c1ccc(C2CCN(c3cc(-c4c[nH]c(=O)[nH]c4=O)nn4ccnc34)C2)cc1 (centres unmarked) [Example 270, 4-(1-(6-(2,4-dioxo-1,2,3,4-tetrahydropyrimidin-5-yl)imidazo[1,2-b]pyridazin-8-yl)pyrrolidin-3-yl)-N-methylbenzamide]
9.9 | 72.6 | O=c1[nH]cc(-c2cc([C@H]3C[C@@H]3c3cnc(C(F)(F)F)nc3)c3nccn3n2)c(=O)[nH]1 [Example 272, 5-(8-((1S,2S)-2-(2-(trifluoromethyl)pyrimidin-5-yl)cyclopropyl)imidazo[1,2-b]pyridazin-6-yl)pyrimidine-2,4(1H,3H)-dione]
9.39 | 58.1 | O=c1[nH]cc(-c2cc([C@@H]3C[C@H]3c3cnc(C(F)(F)F)nc3)c3ncc(F)n3n2)c(=O)[nH]1 [Example 273, 5-(3-fluoro-8-((1R,2R)-2-(2-(trifluoromethyl)pyrimidin-5-yl)cyclopropyl)imidazo[1,2-b]pyridazin-6-yl)pyrimidine-2,4(1H,3H)-dione]
